Source: PubChem BioAssay (NCI)
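Step 1: Grow cells in 96-well plates. Step 2: Expose to compound for 48 hours at 5 concentrations. Step 3: Interpolate endpoints linearly; if unreached, use highest concentration. GI50: concentration for 50% inhibition of growth. Definition used: TGI = concentration required for complete inhibition of growth.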

Columns and labels:
Test in all cases: DTP human tumour cell line panel, 48 h
MOLT-4 leukemia = tested on: MOLT-4 leukemia
COLO 205 colon = tested on: COLO 205 colon
NCI-H460 lung = tested on: NCI-H460 lung
UACC-257 melanoma = tested on: UACC-257 melanoma
NCI-H522 lung = tested on: NCI-H522 lung
SR leukemia = tested on: SR leukemia
K-562 leukemia = tested on: K-562 leukemia
PC-3 prostate = tested on: PC-3 prostate
HT29 colon = tested on: HT29 colon
NCI/ADR-RES ovarian = tested on: NCI/ADR-RES ovarian
A549 NSCLC = tested on: A549 NSCLC
SW-620 colon = tested on: SW-620 colon
HL-60(TB) leukemia = tested on: HL-60(TB) leukemia
786-0 renal = tested on: 786-0 renal
RPMI-8226 leukemia = tested on: RPMI-8226 leukemia
BT-549 breast = tested on: BT-549 breast
TK-10 renal = tested on: TK-10 renal
MDA-MB-435 = tested on: MDA-MB-435
HOP-62 NSCLC = tested on: HOP-62 NSCLC
LOX IMVI melanoma = tested on: LOX IMVI melanoma
SK-MEL-28 melanoma = tested on: SK-MEL-28 melanoma
A498 renal = tested on: A498 renal
OVCAR-5 ovarian = tested on: OVCAR-5 ovarian
SN12C renal = tested on: SN12C renal
MALME-3M melanoma = tested on: MALME-3M melanoma
HCT-116 colon = tested on: HCT-116 colon
SK-MEL-2 melanoma = tested on: SK-MEL-2 melanoma
M14 melanoma = tested on: M14 melanoma
SK-MEL-5 melanoma = tested on: SK-MEL-5 melanoma
HCT-15 colon = tested on: HCT-15 colon
UO-31 renal = tested on: UO-31 renal
OVCAR-4 ovarian = tested on: OVCAR-4 ovarian
RXF 393 renal = tested on: RXF 393 renal
HCC-2998 colon = tested on: HCC-2998 colon
HOP-92 NSCLC = tested on: HOP-92 NSCLC
MCF7 breast = tested on: MCF7 breast
SNB-19 CNS = tested on: SNB-19 CNS
CCRF-CEM leukemia = tested on: CCRF-CEM leukemia
EKVX NSCLC = tested on: EKVX NSCLC
CAKI-1 renal = tested on: CAKI-1 renal
NCI-H226 lung = tested on: NCI-H226 lung
SF-295 CNS = tested on: SF-295 CNS
IGROV1 ovarian = tested on: IGROV1 ovarian
SF-268 CNS = tested on: SF-268 CNS
MDA-MB-231 breast = tested on: MDA-MB-231 breast
UACC-62 melanoma = tested on: UACC-62 melanoma
U251 CNS = tested on: U251 CNS
SF-539 CNS = tested on: SF-539 CNS
KM12 colon = tested on: KM12 colon
NCI-H23 lung = tested on: NCI-H23 lung
HS 578T breast = tested on: HS 578T breast
ACHN renal = tested on: ACHN renal
DU-145 prostate = tested on: DU-145 prostate
SK-OV-3 ovarian = tested on: SK-OV-3 ovarian
SNB-75 CNS = tested on: SNB-75 CNS
T-47D breast = tested on: T-47D breast

CCOP(=O)(OCC)OC[C@]12CCC(C)(C)C=C1[C@H]1CC[C@@H]3[C@@]4(C)CC[C@H](OP(=O)(OCC)OCC)C(C)(C)[C@@H]4CC[C@@]3(C)[C@]1(C)CC2
GI50 (MOLT-4 leukemia): 1200 nM | TGI (MOLT-4 leukemia): 3660 nM | GI50 (COLO 205 colon): 1650 nM | TGI (COLO 205 colon): 3230 nM | GI50 (NCI-H460 lung): 1670 nM | TGI (NCI-H460 lung): 3210 nM | GI50 (UACC-257 melanoma): 1560 nM | TGI (UACC-257 melanoma): 3080 nM | GI50 (NCI-H522 lung): 1640 nM | TGI (NCI-H522 lung): 3160 nM | GI50 (SR leukemia): 866 nM | TGI (SR leukemia): 5560 nM | GI50 (K-562 leukemia): 388 nM | TGI (K-562 leukemia): 3130 nM | GI50 (PC-3 prostate): 673 nM | TGI (PC-3 prostate): 2260 nM | GI50 (HT29 colon): 1360 nM | TGI (HT29 colon): 2780 nM | GI50 (NCI/ADR-RES ovarian): 1570 nM | TGI (NCI/ADR-RES ovarian): 3290 nM | GI50 (A549 NSCLC): 1530 nM | TGI (A549 NSCLC): 3250 nM | GI50 (SW-620 colon): 1640 nM | TGI (SW-620 colon): 3140 nM | GI50 (HL-60(TB) leukemia): 611 nM | TGI (HL-60(TB) leukemia): 3020 nM | GI50 (786-0 renal): 1600 nM | TGI (786-0 renal): 3080 nM | GI50 (RPMI-8226 leukemia): 547 nM | TGI (RPMI-8226 leukemia): 3430 nM | GI50 (BT-549 breast): 1460 nM | TGI (BT-549 breast): 2930 nM | GI50 (TK-10 renal): 1580 nM | TGI (TK-10 renal): 2980 nM | GI50 (MDA-MB-435): 1590 nM | TGI (MDA-MB-435): 2990 nM | GI50 (HOP-62 NSCLC): 1610 nM | TGI (HOP-62 NSCLC): 3140 nM | GI50 (LOX IMVI melanoma): 1300 nM | TGI (LOX IMVI melanoma): 2660 nM | GI50 (SK-MEL-28 melanoma): 1540 nM | TGI (SK-MEL-28 melanoma): 2910 nM | GI50 (A498 renal): 1530 nM | TGI (A498 renal): 2900 nM | GI50 (OVCAR-5 ovarian): 1480 nM | TGI (OVCAR-5 ovarian): 2860 nM | GI50 (SN12C renal): 1350 nM | TGI (SN12C renal): 2850 nM | GI50 (MALME-3M melanoma): 1540 nM | TGI (MALME-3M melanoma): 2960 nM | GI50 (HCT-116 colon): 1540 nM | TGI (HCT-116 colon): 3090 nM | GI50 (SK-MEL-2 melanoma): 1670 nM | TGI (SK-MEL-2 melanoma): 3120 nM | GI50 (M14 melanoma): 1660 nM | TGI (M14 melanoma): 3340 nM | GI50 (SK-MEL-5 melanoma): 1680 nM | TGI (SK-MEL-5 melanoma): 3070 nM | GI50 (HCT-15 colon): 1430 nM | TGI (HCT-15 colon): 2870 nM | GI50 (UO-31 renal): 1360 nM | TGI (UO-31 renal): 2680 nM | GI50 (OVCAR-4 ovarian): 1910 nM | TGI (OVCAR-4 ovarian): 4010 nM | GI50 (RXF 393 renal): 1520 nM | TGI (RXF 393 renal): 3080 nM | GI50 (HCC-2998 colon): 1390 nM | TGI (HCC-2998 colon): 2920 nM | GI50 (HOP-92 NSCLC): 1160 nM | TGI (HOP-92 NSCLC): 2530 nM | GI50 (MCF7 breast): 1480 nM | TGI (MCF7 breast): 3000 nM | GI50 (SNB-19 CNS): 1550 nM | TGI (SNB-19 CNS): 3040 nM | GI50 (CCRF-CEM leukemia): 2300 nM | TGI (CCRF-CEM leukemia): 8870 nM | GI50 (EKVX NSCLC): 1480 nM | TGI (EKVX NSCLC): 2910 nM | GI50 (CAKI-1 renal): 970 nM | TGI (CAKI-1 renal): 2180 nM | GI50 (NCI-H226 lung): 1650 nM | TGI (NCI-H226 lung): 3600 nM | GI50 (SF-295 CNS): 1410 nM | TGI (SF-295 CNS): 2770 nM | GI50 (IGROV1 ovarian): 1720 nM | TGI (IGROV1 ovarian): 3260 nM | GI50 (SF-268 CNS): 1550 nM | TGI (SF-268 CNS): 3020 nM | GI50 (MDA-MB-231 breast): 1410 nM | TGI (MDA-MB-231 breast): 3040 nM | GI50 (UACC-62 melanoma): 1110 nM | TGI (UACC-62 melanoma): 2490 nM | GI50 (U251 CNS): 1580 nM | TGI (U251 CNS): 3170 nM | GI50 (SF-539 CNS): 1660 nM | TGI (SF-539 CNS): 3120 nM | GI50 (KM12 colon): 1560 nM | TGI (KM12 colon): 2930 nM | GI50 (NCI-H23 lung): 1190 nM | TGI (NCI-H23 lung): 2810 nM | GI50 (HS 578T breast): 1760 nM | TGI (HS 578T breast): 4220 nM | GI50 (ACHN renal): 1630 nM | TGI (ACHN renal): 2980 nM | GI50 (DU-145 prostate): 1670 nM | TGI (DU-145 prostate): 3050 nM | GI50 (SK-OV-3 ovarian): 1530 nM | TGI (SK-OV-3 ovarian): 2960 nM | GI50 (SNB-75 CNS): 1370 nM | TGI (SNB-75 CNS): 2690 nM | GI50 (T-47D breast): 1530 nM | TGI (T-47D breast): 3260 nM
